According to patent publication US20240018132A1, “5-HYDROXY-1,4-NAPHTHALENEDIONE FOR USE IN THE TREATMENT OF CANCER” (GODAVARI BIOREFINERIES LIMITED, priority 2020, published 2024):

Experiments:
MDAMB231 [1] = test: In vitro sphere-forming assay (cancer stem cells), Mammosphere media; conditions: for viability at 0.0025 µM / viability at 0.025 µM / viability at 0.25 µM / viability at 2.5 µM / viability at 25 µM: Homo sapiens, MDA-MB-231, read-out: % Viability of spheres (MDAMB231); for 3D sphere count of MDAMB231: Mammosphere media, 2000 cells/well, n = 6 ± S.D
Procedure: (§5) In Vitro Sphere-forming Assay: Sphere assay measures the ability of cancer stem cells (CSCs) to form spheres in specially designed serum-free medium.
Mammosphere Media Preparation (For 100 mL): 1 g methyl cellulose autoclaved with magnetic stirrer, 100 ml plain media (MEBM) was added and dissolved under magnetic stirring. After complete dissolution FGF-80 μL, EGF-40 μL, Penstrep-1 mL, Heparin-400 μL was added.
(§6) Procedure—The cells were trypsinised and made into single-cell suspension by passing through cell strainers (100 μl and 40 μl, respectively), The cells were diluted at a concentration of 2000 cells/100 μL and suspended in either Mammosphere (for breast cell lines) or Prostosphere (for prostate cell lines). 100 μL of this suspension was added into each well of 96-well suspension plates and incubated at 37° C., 5% CO2 for 24 hrs. Appropriate concentrations of the drugs (2 μL) were added into respective wells with 100 μL of stem cell culture medium. Plates were incubated at 37° C., 50 CO2 for 72 hrs. After incubation, 2.5 μL of the respective drug concentration and 50 μL of stem cell culture medium were added into each well and the plates were further incubated at 37° C., 50% CO2 for 72 hrs. 3 μL of the respective drug concentration was added with 50 μL of stem cell culture medium again after incubation and plates were reincubated for 72 hrs at 37° C., 50 CO2. Number of primary spheres formed for each concentration were counted. The spheres were converted to 0 viability of spheres compared to untreated (Growth Control with DMSO, GCD).

PC3 [2] = test: In vitro sphere-forming assay (cancer stem cells), Prostosphere media; conditions: for viability at 0.0025 µM / viability at 0.025 µM / viability at 0.25 µM / viability at 2.5 µM / viability at 25 µM: Homo sapiens, PC-3, read-out: % Viability of spheres (PC3); for 3D sphere count of PC3: Prostosphere media, 2000 cells/well, n = 6 ± S.D
Procedure: as §5
Prostosphere Media Preparation (For 100 mL):1 g methyl cellulose autoclaved with magnetic stirrer, 100 mL plain media (Prostate Epithelial Basal Medium) was added and dissolved, under magnetic stirring. After complete dissolution, Insulin-40 μL, B27-2 mL, EGF-80 μL, Penstrep-1 ml was added.
as §6

MDAMB231 [3] = test: Soft agar colony-formation assay, breast cancer; assay type: cell-based; conditions: for anticancer activity in comparison with cisplatin, soft agar, breast cancer cell line: FIG. 51, MDAMB231; for IC50: Homo sapiens, MDA-MB-231, 168 h, Soft Agar Assay, 1 week, Alamar Blue
Description: (§1) The Soft Agar Colony-formation Assay is an anchorage-independent growth assay in soft agar, which is one of the most stringent assays for detecting malignant transformation of cells. For this assay, malignant cells are cultured with appropriate controls in soft agar medium for 1-2 weeks. Following this incubation period, formed colonies can either be analyzed morphologically using cell stain and quantifying the number of colonies formed.
(§2) Briefly, for Soft Agar Assay a mixture of 50 ul of 2× medium (taken appropriately as per cell line) and 50 ul of 1.2% Bacto Agar were plated on to each well of 96 well micro titer assay plate. 10 ul of cells (of specific plating efficiency pre standardized for respective cell line) were mixed with 20 ul of 2× medium and 30 ul of 0.8% of Bacto Agar and 1.6 ul of drug (of appropriate concentration) in a vial and transferred to the solidified pre layers of the assay plates. The cells were then allowed to grow and form colonies at 37° C. and 5% CO2 for 1 week. An intermittent feeding with 50 ul of appropriate 2× medium was performed after 3 days of experimental set up. 16 ul of Alamar Blue (1.5 mg/ml) was then added to all the wells to quantify the developed colonies. The plates were incubated for 24 hrs at 37° C. Absorbance was then measured at 630 nm. XY graph of log Percent viability was then plotted against log drug concentration.
(§3) Following plating efficiencies were standardized for Soft Agar Assay: […]

PC3 [4] = test: Soft agar colony-formation assay, prostate cancer; assay type: cell-based; conditions: for anticancer activity in comparison with cisplatin, soft agar, prostate cancer cell line: FIG. 52, PC3; for IC50: Homo sapiens, PC-3, 168 h, Soft Agar Assay, 1 week, Alamar Blue
Description: as §1, §2, §3

Human lymphocytes = test: Lymphocyte assay (MTT on normal cells); assay type: cell-based; conditions: human peripheral blood lymphocytes, MTT procedure; for IC50: Lymphocyte
Description: Human lymphocytes were isolated from the peripheral blood. A pure population of lymphocytes was obtained based on differential centrifugation, in which diluted defibrinated blood was layered on a solution of sodium diatrizoate and polysucrose (HiSep LSM 1077) and centrifuged at low speeds for 30 mins.
Procedure: The separation of lymphocytes from fresh defibrinated blood was performed by the procedure described below: • 1. Diluted defibrinated fresh blood was overlaid gradually on (HiSeP LSM1077) and centrifuged at low speed for 30 mins. • 2. The lymphocyte layer (the buffy coat) was carefully removed in a new collection tube. • 3. The buffy coat was given another wash, by the diluent buffer Dulbecco's phosphate buffered saline (D.P.B.S) • 4. The supernatant was discarded and the pellet was resuspended in D.P.B.S. • 5. The viability of cells was checked by Haemocytometer. • 6. Cells with purity and viability of more than 95% were taken for the experiment. • 7. Purified lymphocytes were diluted at a concentration of 0.7 million/ml with sterile D.P.B.S and MTT procedure was performed exactly as described earlier.

MDAMB231 [5] = test: In vitro antiproliferative assay (MTT assay), breast cancer cell line; assay type: cell-based; conditions: Homo sapiens, MDA-MB-231, 48 h, MTT assay, breast cancer MDAMB231, 48 hrs drug incubation
Outline: (§4)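 Cells were seeded at standardized plating densities, allowed 24 h at 37 °C in 5% CO2, then exposed to compounds (from 0.1M DMSO stock) for 48 h. MTT (0.5 mg/ml) was added for 4 h, formazan dissolved in DMSO, and log % viability plotted against log drug concentration.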

PC3 [6] = test: In vitro antiproliferative assay (MTT assay), prostate cancer cell line; assay type: cell-based; conditions: Homo sapiens, PC-3, 48 h, MTT assay, prostate cancer PC3, 48 hrs drug incubation
Outline: as §4

Row | SMILES | viability at 0.0025 µM (MDAMB231 [1]) | viability at 0.025 µM (MDAMB231 [1]) | viability at 0.25 µM (MDAMB231 [1]) | viability at 2.5 µM (MDAMB231 [1]) | viability at 25 µM (MDAMB231 [1]) | 3D sphere count of MDAMB231 (MDAMB231 [1]; drug 0.0025 uM) | 3D sphere count of MDAMB231 (MDAMB231 [1]; drug 0.025 uM) | 3D sphere count of MDAMB231 (MDAMB231 [1]; drug 0.25 uM) | 3D sphere count of MDAMB231 (MDAMB231 [1]; drug 2.5 uM) | 3D sphere count of MDAMB231 (MDAMB231 [1]; drug 25 uM) | viability at 0.0025 µM (PC3 [2]) | viability at 0.025 µM (PC3 [2]) | viability at 0.25 µM (PC3 [2]) | viability at 2.5 µM (PC3 [2]) | viability at 25 µM (PC3 [2]) | 3D sphere count of PC3 (PC3 [2]; drug 0.0025 uM) | 3D sphere count of PC3 (PC3 [2]; drug 0.025 uM) | 3D sphere count of PC3 (PC3 [2]; drug 0.25 uM) | 3D sphere count of PC3 (PC3 [2]; drug 2.5 uM) | 3D sphere count of PC3 (PC3 [2]; drug 25 uM) | other results
1 | O=C1C=C(OCCCCN2CCOCC2)C(=O)c2ccccc21 [Formula 67] | 80% | 69% | 56% | 48% | 37% | 67(±2) | 58(±3) | 47(±5) | 40(±5) | 31(±2) | 70% | 64% | 51% | 44% | 36% | 61(±5) | 56(±3) | 45(±3) | 39(±2) | 32(±3) | anticancer activity in comparison with cisplatin, soft agar, breast cancer cell line (MDAMB231 [3]): higher anticancer activity in comparison with cisplatin; IC50 (MDAMB231 [3]): 3.17 µM; anticancer activity in comparison with cisplatin, soft agar, prostate cancer cell line (PC3 [4]): higher anticancer activity in comparison with cisplatin; IC50 (PC3 [4]): 2.21 µM; IC50 (Human lymphocytes): 5.15 µM; IC50 (MDAMB231 [5]): 3.09 µM; IC50 (PC3 [6]): 4.11 µM
2 | O=C1C=C(N2CCOCC2)C(=O)c2c(OCCN3CCOCC3)cccc21 [Formula 73] | 87% | 70% | 50% | 35% | 19% | 62(±4) | 50(±3) | 36(±4) | 25(±3) | 14(±3) | 86% | 68% | 50% | 36% | 23% | 69(±2) | 55(±3) | 40(±3) | 29(±3) | 19(±3) | anticancer activity in comparison with cisplatin, soft agar, breast cancer cell line (MDAMB231 [3]): higher anticancer activity in comparison with cisplatin; IC50 (MDAMB231 [3]): 3.77 µM; anticancer activity in comparison with cisplatin, soft agar, prostate cancer cell line (PC3 [4]): higher anticancer activity in comparison with cisplatin; IC50 (PC3 [4]): 2.68 µM; Activity on Lymphocytes (IC50) (Human lymphocytes): No activity; IC50 (MDAMB231 [5]): 2.18 µM; IC50 (PC3 [6]): 3.05 µM
3 | O=C1C(Nc2ccc3c(c2)OCO3)=CC(=O)c2c(OCC(=O)N3CCOCC3)cccc21 [Formula 71] | 79% | 64% | 53% | 34% | 13% | 65(±5) | 53(±4) | 44(±4) | 28(±3) | 11(±2) | 95% | 65% | 52% | 37% | 20% | 65(±5) | 53(±4) | 44(±4) | 28(±3) | 11(±2) | anticancer activity in comparison with cisplatin, soft agar, breast cancer cell line (MDAMB231 [3]): higher anticancer activity in comparison with cisplatin; IC50 (MDAMB231 [3]): 1.79 µM; anticancer activity in comparison with cisplatin, soft agar, prostate cancer cell line (PC3 [4]): higher anticancer activity in comparison with cisplatin; IC50 (PC3 [4]): 3.31 µM; IC50 (Human lymphocytes): 25.2 µM; IC50 (MDAMB231 [5]): 1.35 µM; IC50 (PC3 [6]): 3.55 µM
4 | COc1ccc(NC2=CC(=O)c3c(OCCCCN4CCOCC4)cccc3C2=O)cc1OC [Formula 41] | 86% | 70% | 52% | 34% | 19% | 66(±4) | 54(±4) | 40(±3) | 26(±3) | 15(±3) | 85% | 72% | 54% | 46% | 27% | 74(±4) | 63(±3) | 47(±5) | 40(±4) | 24(±4) | anticancer activity in comparison with cisplatin, soft agar, breast cancer cell line (MDAMB231 [3]): higher anticancer activity in comparison with cisplatin; IC50 (MDAMB231 [3]): 1.63 µM; anticancer activity in comparison with cisplatin, soft agar, prostate cancer cell line (PC3 [4]): higher anticancer activity in comparison with cisplatin; IC50 (PC3 [4]): 2.67 µM; Activity on Lymphocytes (IC50) (Human lymphocytes): No activity; IC50 (MDAMB231 [5]): 3.06 µM; IC50 (PC3 [6]): 2.73 µM
